In patent US20240246931A1, “COMPOUNDS AS PD1/PD-L1 INHIBITORS AND METHODS THEREOF” (JUBILANT PRODEL LLC, priority 2021, published 2024):
pIC50: −log10 of the molar value.

target: T1, PD-1/PD-L1 interaction (Homo sapiens, UniProt Q9NZQ7); experiment: PD-1/PD-L1 HTRF binding assay (CisBio kit); conditions: HTRF PD1/PD-L1 inhibition assay
T1 construct: purchased CisBio 63ADK000CPAPEG
Method: PD-L1 Enzyme Assay: Homogenous Time-Resolved Fluorescence (HTRF) Binding Assay
All binding studies were performed using PD-1/PD-L1 Binding Assay Kit from CisBio (Catalog #63ADK000CPAPEG), according to the manufacturer's protocol. The interaction between Tag1-PD-1 and […] was detected by anti-Tag1-Eu^3+ (HTRF donor) and anti-Tag2-XL665 (HTRF acceptor). When the donor and acceptor antibodies were brought to close proximity due to PD-1 and PD-L1 binding, excitation of the donor antibody triggered fluorescent resonance energy transfer (FRET) towards the acceptor antibody, which in turn emitted specifically at 665 nm. This specific signal is positively proportional to PD-1/PD-L1 interaction. The compounds blocking PD-1/PD-L1 interaction will cause a reduction in HTRF signal. The necessary reagents were mixed in the following order: 2 μL compounds (or diluents buffer), 4 μL PD-L1 protein, 4 μL PD-1 protein. After an incubation of 15 minutes, 5 μL of anti-Tag1-Eu^3+ and 5 μL of anti-Tag2-XL665 were added. The plate was sealed and incubated at room temperature for 1 h. The fluorescence emission was read at two different wavelengths (665 nm and 620 nm) on a BMG PheraStar® multi-plate reader.
Results were calculated from the 665 nm and 620 nm fluorescence signal and expressed in HTRF ratio=(665 nm/620 nm)×10^4.
Compounds having IC50<100 nM are designated as “A”; 100-500 nM are designated as “B”; and >500 nM are designated as “C” respectively.

T1 sequence (Q9NZQ7 19-238 limits assumed): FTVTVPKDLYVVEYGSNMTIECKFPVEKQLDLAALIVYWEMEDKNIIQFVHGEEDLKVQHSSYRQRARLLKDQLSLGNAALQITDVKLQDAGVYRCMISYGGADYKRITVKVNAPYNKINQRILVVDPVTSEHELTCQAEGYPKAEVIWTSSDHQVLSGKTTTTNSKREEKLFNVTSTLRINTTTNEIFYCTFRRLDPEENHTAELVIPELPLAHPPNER

First: Cc1c(COc2cc(OCc3cncc(C#N)c3)c(CN3CCC3CO)c3c2CCC3)cccc1-c1ccc(N2CCOCC2)nc1 (centres unmarked) [Example 61, 5-(((4-((2-(hydroxymethyl)azetidin-1-yl)methyl)-7-((2-methyl-3-(6-morpholinopyridin-3-yl)benzyl)oxy)-2,3-dihydro-1H-inden-5-yl)oxy)methyl)nicotinonitrile]
Second: Cc1c(COc2cc(OCc3cncc(C#N)c3)c(CN3CCC3CO)c3c2CCC3)cccc1-c1cccc(O)c1 (centres unmarked) [Example 67, 5-(((7-((3′-hydroxy-2-methyl-[1,1′-biphenyl]-3-yl)methoxy)-4-((2-(hydroxymethyl)azetidin-1-yl)methyl)-2,3-dihydro-1H-inden-5-yl)oxy)methyl)nicotinonitrile]
The pIC50 of the first is lower: < 6.30 for the first, > 7.00 for the second.

`Cc1c(COc2cc(OCc3cncc(C#N)c3)c(CN3CCC3CO)c3c2CCC3)cccc1-c1ccccc1F` (centres unmarked) [Example 62, 5-(((7-((2′-fluoro-2-methyl-[1,1′-biphenyl]-3-yl)methoxy)-4-((2-(hydroxymethyl)azetidin-1-yl)methyl)-2,3-dihydro-1H-inden-5-yl)oxy)methyl)nicotinonitrile] and `Cc1c(COc2cc(OCc3cncc(C#N)c3)c(CN3CCC3CO)c3c2CCC3)cccc1-c1cccc(F)c1` (centres unmarked) [Example 64, 5-(((7-((3′-fluoro-2-methyl-[1,1′-biphenyl]-3-yl)methoxy)-4-((2-(hydroxymethyl)azetidin-1-yl)methyl)-2,3-dihydro-1H-inden-5-yl)oxy)methyl)nicotinonitrile] cannot be ordered by pIC50: > 7.00 for the first, > 7.00 for the second.

Going from `COc1ccc(-c2cccc(COc3cc(OCc4cncc(C#N)c4)c(CN4CCC4CO)c4c3CCC4)c2C)cc1` (centres unmarked) [Example 63, 5-(((4-((2-(hydroxymethyl)azetidin-1-yl)methyl)-7-((4′-methoxy-2-methyl-[1,1′-biphenyl]-3-yl)methoxy)-2,3-dihydro-1H-inden-5-yl)oxy)methyl)nicotinonitrile] to `COc1cccc(-c2cccc(COc3cc(OCc4cncc(C#N)c4)c(CN4CCC4CO)c4c3CCC4)c2C)c1` (centres unmarked) [Example 65, 5-(((4-((2-(hydroxymethyl)azetidin-1-yl)methyl)-7-((3′-methoxy-2-methyl-[1,1′-biphenyl]-3-yl)methoxy)-2,3-dihydro-1H-inden-5-yl)oxy)methyl)nicotinonitrile], the pIC50 rises from < 6.30 to > 7.00. The second is the more potent here.

`Cc1c(COc2cc(OCc3cncc(C#N)c3)c(CN3CCC3CO)c3c2CCC3)cccc1-c1ccc(OC(F)(F)F)cc1` (centres unmarked) [Example 66, 5-(((4-((2-(hydroxymethyl)azetidin-1-yl)methyl)-7-((2-methyl-4′-(trifluoromethoxy)-[1,1′-biphenyl]-3-yl)methoxy)-2,3-dihydro-1H-inden-5-yl)oxy)methyl)nicotinonitrile] and `Cc1c(COc2cc(OCc3cncc(C#N)c3)c(CN3CCC3CO)c3c2CCC3)cccc1-c1ccncc1` (centres unmarked) [Example 70, 5-(((4-((2-(hydroxymethyl)azetidin-1-yl)methyl)-7-((2-methyl-3-(pyridin-4-yl)benzyl)oxy)-2,3-dihydro-1H-inden-5-yl)oxy)methyl)nicotinonitrile] cannot be ordered by pIC50: < 6.30 for the first, < 6.30 for the second.

First: Cc1c(COc2cc(OCc3cncc(C#N)c3)c(CN3CCC3CO)c3c2CCC3)cccc1-c1cnn(C)c1 (centres unmarked) [Example 68, 5-(((4-((2-(hydroxymethyl)azetidin-1-yl)methyl)-7-((2-methyl-3-(1-methyl-1H-pyrazol-4-yl)benzyl)oxy)-2,3-dihydro-1H-inden-5-yl)oxy)methyl)nicotinonitrile]
Second: Cc1c(COc2cc(OCc3cncc(C#N)c3)c(CN3CCC3CO)c3c2CCC3)cccc1-c1cccnc1 (centres unmarked) [Example 71, 5-(((4-((2-(hydroxymethyl)azetidin-1-yl)methyl)-7-((2-methyl-3-(pyridin-3-yl)benzyl)oxy)-2,3-dihydro-1H-inden-5-yl)oxy)methyl)nicotinonitrile]
The pIC50 of the first is lower: < 6.30 for the first, 6.30 to 7.00 for the second.

For `Cc1c(COc2cc(OCc3cncc(C#N)c3)c(CN3CCC3CO)c3c2CCC3)cccc1-c1cccc2cccnc12` (centres unmarked) [Example 69, 5-(((4-((2-(hydroxymethyl)azetidin-1-yl)methyl)-7-((2-methyl-3-(quinolin-8-yl)benzyl)oxy)-2,3-dihydro-1H-inden-5-yl)oxy)methyl)nicotinonitrile], the pIC50 was < 6.30.
